In patent US7662842B2, “Thiazolidinone amides, thiazolidine carboxylic acid amides, and serine amides, including polyamine conjugates thereof, as selective anti-cancer agents” (Ohio State Univesity Research Foundation, priority 2003, dated 2010):

Experiments:
WM-164 cells = assay: Sulforhodamine B assay in melanoma cells, WM-164; assay type: cell-based; settings: Homo sapiens, WM164, read-out: IC50 WM-164; SRB assay, 48 h incubation; melanoma cell line
SKMEL-188 cells = assay: Lactate dehydrogenase release assay; assay type: cell-based; settings: SKMEL-188, 48 hours, FIG. 11A
Experimental: (§1) SKMEL-188 melanoma cells were incubated with Compound 4(R) at 60 μM for 48 hours. FIG. 11A is a graph showing the cytotoxicity as measured by LDH release from the cells following treatment. Data is presented as mean±SEM (n=8), *p<0.05, **p<0.005. FIG. 11B is a pair of graphs that show the DNA content, as measured by flow cytometry, of cells that were exposed to control (left) and Compound 4(R) (right).
Lactate Dehydrogenase Release Assay: SKMEL-188 cells were seeded at a density of 5000 cells per well in a 96-well flat-bottom microtiter plate. Media were changed after 12 hours and the testing compound was added at serial dilutions. Media were changed with fresh compound every 24 hours. […] Lactate dehydrogenase (LDH) in supernatants was measured using Cytotox 96 Non-Radioactive Cytotoxicity Assay (Promega, Madison, Wis.). […] At the end of incubation stop solution was added to each well and plate was read at 490 nm. Cytotoxicity of compounds was calculated using the following formula: percent cytotoxicity=experimental LDH release/maximum LDH release Experimental LDH release was calculated by subtraction of absorbance corresponding to media only from absorbance corresponding to control/compound treated cells. Maximum LDH release was calculated by subtraction of absorbance corresponding to media with added lysis solution from absorbance corresponding to cells lysed with lysis solution. […]

SKMEL-188 melanoma cells [1] = assay: Sulforhodamine B assay in melanoma cells, SKMEL-188; assay type: cell-based; settings: SK-MEL-188, 48 h, SRB assay, 48 h incubation; melanoma cell line
LNCaP cells = assay: DNA fragmentation by agarose gel electrophoresis; assay type: cell-based, human; settings: treatment for 24 to […], 3-50 μM, FIGS. 4A-B
Experimental: In FIG. 4B, the dose and exposure time are indicated for compound 5 as follows: lane 1, 100 bp DNA marker; lane 2, 5 μM for 24 h; lane 3, 5 μM for 48 h; lane 4, 5 μM for 72 h; lane 5, 5 μM for 96 h; lane 6, 3 μM for 96 h; lane 7, 8 μM for 48 h; and lane 8, 8 μM for 72 h.

SKMEL-188 melanoma cells [2] = assay: DNA content analysis by flow cytometry; assay type: cell-based; settings: SKMEL-188, 48 hours, 6 μM and 60 μM, FIG. 11B, Hydrochloride
Experimental: as §1
DNA Content Analysis: SKMEM-188 cells were seeded in 10 cm Petri dishes at a density of 10^6 cell per dish. At 12 hours, the medium was changed to 5% FBS with different concentrations of the testing compound. Cells were incubated for 48 hours, and media with compounds were changed every 24 hours. Cells were trypsinized, washed with PBS, and fixed in ice-cold 70% ethanol. After fixing, the ethanol was removed by centrifugation, and cells were incubated in phosphate-citrate buffer (0.2M Na2HPO4, 4 mM citric acid, pH=7.8) for 1 hour. […] Samples were shaken for 30 minutes, and analyzed with FACS Caliber cytometer (Becton Dickinson, San Diego, Calif.). Data was analyzed and graphs were prepared using Modfit 2.0 (Verity Sofware House, Topsham, Me.).
To examine more closely the cell death induced by the tested compounds, LDH release was measured by calorimetric assay and DNA content was analyzed by flow cytometry. […]

human dermal fibroblasts = assay: Sulforhodamine B assay, fibroblast control cells; assay type: cell-based; settings: Homo sapiens, Fibroblast, 48 h, SRB assay, 48 h incubation

CCCCCCCCCCCCCCNC(=O)[C@@H]1CSC(c2ccccc2)N1.Cl (mixture of isomers) [Compound 4, (2RS, 4R)-2-Phenylthiazolidine-4-carboxylic acid tetradecylamide Hydrochloride]
IC50 (WM-164 cells): 460 nM | LDH released to cellular environment (SKMEL-188 cells): dramatic does-dependent increase of LDH released | IC50 (SKMEL-188 melanoma cells [1]): 570 nM | DNA fragmentation (apoptosis) in LNCaP cells (LNCaP cells): induce cell apoptosis | DNA content / mode of cell death (SKMEL-188 melanoma cells [2]; listed as 4 (R enantiomer)): causes necrotic cell death | DNA content / mode of cell death (SKMEL-188 melanoma cells [2]; listed as 4R): disappearance of peaks corresponding to viable, proliferating cells | IC50 (human dermal fibroblasts): 6100 nM
